Measurements: patent publication US7915293B2, “Ubiquitin ligase inhibitors” (Rigel Pharmaceuticals, Inc., priority 2003, dated 2011)

How the values were obtained:
Design in all cases: key: “+” indicates that the compound exibits inhibitory activity; “−” indicates that low or no inhibitory activity was observed
[1] = molecular target: E3 (His-APC11/APC2-"APC") (Homo sapiens, UniProt Q9NYG5+Q9UJX6); experiment: Plate-based E3 ligase assay (APC FLAG), auto-ubiquitination; type: biochemical; conditions: for APC Flag 8 pt: 8 concentrations tested; for APC Flag (2 pt): 2 concentrations tested
Procedure, shortened: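 His-APC11/APC2 auto-ubiquitination was run in casein-blocked nickel plates for 1 h at room temperature, with E1 at 5 ng/well, UbcH5c at 20 ng/well and APC at 100 ng/well. Buffer was 62.5 mM Tris pH 7.6, 3 mM MgCl2, 1 mM DTT, 2.5 mM ATP and Flag-ubiquitin at 100 ng/well. Detection used anti-Flag/HRP chemiluminescence, and IC50 was typically from 6 or 8 concentrations versus a DMSO control.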

HeLa cells [2] = experiment: Non-photographic proliferation analysis (Promega Cell titer Aqueous), HeLa; type: cell-based; conditions: 6 concentrations tested
Description: (§1) A549 (ATCC# CCL-185), HeLa (ATCC# CCL-2), HCT116 (ATCC# CCL-247), and H1299 (ATCC# CRL-5803) cells were maintained in T175 flasks following the ATCC recommended media and handling procedures. Flasks reaching approximately 70% confluency were trypsinized and resuspended in RPMI media (Cell-Gro catalog number 10-040-CM) modified to contain 5% FBS, 100 ug/mlPen/Strep (Cell-Gro catalog number 30-002-CL), and 0.3 mg/ml L-Glutamine (Cell-Gro catalog number 25-003-CL). A 20,000 cells/ml solution was made for plating. Cells were plated in black Packard 96 well plates by placing 100 μl per well (2,000 cells per well).
(§2) Compounds and additional media were added 24 hours after cell plating. A compound master plate was created with concentrations 500 times greater than the final concentration added to the cells. All compound testing was done in duplicate using 6.3 fold dilutions starting with 10 mM. All outside wells (and 4 internal wells) were DMSO controls. Taxol and at least one additional control were run on all plates. Three microliters of the compound master plate were added to deep well blocks containing 750 μl of RPMI media. One hundred microliters were transferred from the compound/media deep well blocks to the plated cells resulting in a 500 fold dilution of the compounds. Cells were grown at 37° C., 5% CO2 for 48 hours.
(§3) Some cell plates were treated with Promega Cell titer Aqueous 1 kit (promega—VWR catalog number G3580). In this case, 48 hours after the test compound were added, 100 μl of media were removed and 20 μl of cell titer reagent were added to all wells. Plates were incubated at 37° C. for 45 minutes prior to absorbance reads on the Wallac plate reader at 490 nm for 0.1 sec/well.

A549 cells [3] = experiment: Non-photographic proliferation analysis (Promega Cell titer Aqueous), A549; type: cell-based; conditions: 6 concentrations tested
Description: as §1, §2, §3

A549 cells [4] = experiment: Cell proliferation assay, photographic image analysis of proliferation, apoptosis and death (PAD assay), A549; type: cell-based; conditions: 6 concentrations tested
Procedure, shortened: (§4)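 Cells grown in RPMI with 5% FBS (2,000/well) and dosed 24 h after plating with 6.3-fold dilutions in duplicate (master plate 500× final, top 10 mM stock). After 48 h at 37 °C, cells formamide-fixed and DAPI-stained. Image analysis counted live, apoptotic and dead cells.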

HeLa cells [5] = experiment: Cell proliferation assay, photographic image analysis of proliferation, apoptosis and death (PAD assay), HeLa; type: cell-based; conditions: 6 concentrations tested
Procedure, shortened: as §4

Sequence of E3 (His-APC11/APC2-"APC") (Q9NYG5 whole entry): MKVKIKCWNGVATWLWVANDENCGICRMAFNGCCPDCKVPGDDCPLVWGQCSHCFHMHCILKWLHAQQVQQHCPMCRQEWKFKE
Sequence of E3 (His-APC11/APC2-"APC") (Q9UJX6 whole entry): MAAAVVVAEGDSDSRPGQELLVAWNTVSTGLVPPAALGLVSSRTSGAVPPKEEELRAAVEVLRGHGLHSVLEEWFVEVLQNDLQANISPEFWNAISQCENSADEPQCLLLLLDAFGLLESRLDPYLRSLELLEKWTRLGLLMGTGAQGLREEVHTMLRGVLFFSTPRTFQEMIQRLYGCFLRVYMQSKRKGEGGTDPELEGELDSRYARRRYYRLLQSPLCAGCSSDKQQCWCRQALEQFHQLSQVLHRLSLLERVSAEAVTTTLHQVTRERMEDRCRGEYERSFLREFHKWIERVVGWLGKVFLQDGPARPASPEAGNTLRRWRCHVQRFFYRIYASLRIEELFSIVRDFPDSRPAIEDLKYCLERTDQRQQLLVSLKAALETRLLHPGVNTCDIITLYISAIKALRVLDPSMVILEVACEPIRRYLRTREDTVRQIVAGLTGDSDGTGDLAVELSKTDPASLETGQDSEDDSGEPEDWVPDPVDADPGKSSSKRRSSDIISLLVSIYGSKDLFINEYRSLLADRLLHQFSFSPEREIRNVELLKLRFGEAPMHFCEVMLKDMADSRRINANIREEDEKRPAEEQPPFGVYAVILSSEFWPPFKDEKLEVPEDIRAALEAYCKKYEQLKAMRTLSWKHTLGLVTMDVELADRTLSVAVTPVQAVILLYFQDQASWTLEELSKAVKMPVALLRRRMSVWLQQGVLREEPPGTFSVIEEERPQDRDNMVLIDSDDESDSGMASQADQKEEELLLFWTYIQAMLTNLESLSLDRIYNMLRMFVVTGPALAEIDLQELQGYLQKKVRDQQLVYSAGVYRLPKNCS

SMILES: O=[N+]([O-])c1ccc(Oc2c(Cl)cc(S(=O)(=O)NC(=S)Nc3ccc(Cl)c(Cl)c3)cc2Cl)c(Cl)c1 [Compound 148, 3,5-dichloro-4-(2-chloro-4-nitrophenoxy)-N-{[(3,4-dichlorophenyl)amino]carbothioyl}benzenesulfonamide]
- APC Flag 8 pt [1]: +
- Cell Titer-Aqueous, HELA 6 pt (HeLa cells [2]): −
- Cell Titer-Aqueous, A549 6 pt (A549 cells [3]): −

SMILES: CS(=O)(=O)c1cccc(NS(=O)(=O)c2cc(Cl)c(Oc3ccc([N+](=O)[O-])cc3Cl)c(Cl)c2)c1 [Compound 173, 3,5-dichloro-4-(2-chloro-4-nitrophenoxy)-N-[3-(methylsulfonyl)phenyl]benzenesulfonamide]
- PAD Assay, A549 6 pt (A549 cells [4]): −
- APC Flag (2 pt) [1]: − (2 pt)
- Cell Titer-Aqueous, HELA 6 pt (HeLa cells [2]): −
- PAD Assay, HELA 6 pt (HeLa cells [5]): −
- Cell Titer-Aqueous, A549 6 pt (A549 cells [3]): −

SMILES: COc1ccc(N(S(=O)(=O)c2cc(Cl)c(Oc3ccc([N+](=O)[O-])cc3Cl)c(Cl)c2)S(=O)(=O)c2cc(Cl)c(Oc3ccc([N+](=O)[O-])cc3Cl)c(Cl)c2)cc1Cl [Example 155, 3,5-dichloro-N-(3-chloro-4-methoxyphenyl)-4-(2-chloro-4-nitrophenoxy)-N-(1,3-dichloro-2-(2-chloro-4-nitrophenoxy)-5-sulfonylbenzene)benzenesulfonamide]
- PAD Assay, A549 6 pt (A549 cells [4]): +
- APC Flag 8 pt [1]: +
- Cell Titer-Aqueous, HELA 6 pt (HeLa cells [2]): −
- Cell Titer-Aqueous, A549 6 pt (A549 cells [3]): −

SMILES: O=[N+]([O-])c1ccc(Oc2c(Cl)cc(S(=O)(=O)Nc3ccccc3Cl)cc2Cl)c(Cl)c1 [Example 156, 3,5-dichloro-4-(2-chloro-4-nitrophenoxy)-N-(2-chlorophenyl)benzenesulfonamide]
- APC Flag 8 pt [1]: +
- Cell Titer-Aqueous, HELA 6 pt (HeLa cells [2]): +
- PAD Assay, HELA 6 pt (HeLa cells [5]): +
- Cell Titer-Aqueous, A549 6 pt (A549 cells [3]): +

SMILES: COc1cccc(NS(=O)(=O)c2cc(Cl)c(Oc3ccc([N+](=O)[O-])cc3Cl)c(Cl)c2)c1F [Example 166, 3,5-dichloro-4-(2-chloro-4-nitrophenoxy)-N-(2-fluoro-3-methoxyphenyl)benzene-sulfonamide]
- APC Flag 8 pt [1]: +
- Cell Titer-Aqueous, HELA 6 pt (HeLa cells [2]): +
- Cell Titer-Aqueous, A549 6 pt (A549 cells [3]): +

SMILES: COc1ccc(NS(=O)(=O)c2cc(Cl)c(Oc3ccc([N+](=O)[O-])cc3Cl)c(Cl)c2)cc1OC [Example 170, 3,5-dichloro-4-(2-chloro-4-nitrophenoxy)-N-(3,4-dimethoxyphenyl)benzenesulfonamide]
- APC Flag 8 pt [1]: +
- Cell Titer-Aqueous, HELA 6 pt (HeLa cells [2]): +
- Cell Titer-Aqueous, A549 6 pt (A549 cells [3]): +

SMILES: O=[N+]([O-])c1ccc(Oc2c(Cl)cc(S(=O)(=O)Nc3cccc4c3oc3ccccc34)cc2Cl)c(Cl)c1 [Example 175, 3,5-dichloro-4-(2-chloro-4-nitrophenoxy)-N-dibenzo[b,d]furan-4-ylbenzenesulfonamide]
- APC Flag 8 pt [1]: +
- Cell Titer-Aqueous, HELA 6 pt (HeLa cells [2]): −
- Cell Titer-Aqueous, A549 6 pt (A549 cells [3]): −

SMILES: O=[N+]([O-])c1ccc(Oc2c(Cl)cc(S(=O)(=O)Nc3cccc(-c4ccccc4)c3)cc2Cl)c(Cl)c1 [Example 179, N-biphenyl-3-yl-3,5-dichloro-4-(2-chloro-4-nitrophenoxy)benzenesulfonamide]
- APC Flag 8 pt [1]: +
- Cell Titer-Aqueous, HELA 6 pt (HeLa cells [2]): +
- Cell Titer-Aqueous, A549 6 pt (A549 cells [3]): −

SMILES: O=[N+]([O-])c1ccc(Oc2c(Cl)cc(S(=O)(=O)Nc3cccnc3)cc2Cl)c(Cl)c1 [Example 205, 3,5-dichloro-4-(2-chloro-4-nitrophenoxy)-N-pyridin-3-ylbenzenesulfonamide]
- APC Flag 8 pt [1]: −
- Cell Titer-Aqueous, HELA 6 pt (HeLa cells [2]): −
- Cell Titer-Aqueous, A549 6 pt (A549 cells [3]): −

SMILES: COc1ccc(NS(=O)(=O)c2cc(Cl)c(Oc3ccc([N+](=O)[O-])cc3Cl)c(Cl)c2)c(OC)n1 [Example 206, 3,5-dichloro-4-(2-chloro-4-nitrophenoxy)-N-(2,6-dimethoxypyridin-3-yl)benzene-sulfonamide]
- APC Flag 8 pt [1]: −
- Cell Titer-Aqueous, HELA 6 pt (HeLa cells [2]): +
- Cell Titer-Aqueous, A549 6 pt (A549 cells [3]): +

SMILES: O=[N+]([O-])c1ccc(Oc2c(Cl)cc(S(=O)(=O)Nc3cccnc3Cl)cc2Cl)c(Cl)c1 [Example 207, 3,5-dichloro-4-(2-chloro-4-nitrophenoxy)-N-(2-chloropyridin-3-yl)benzenesulfonamide]
- APC Flag 8 pt [1]: +
- Cell Titer-Aqueous, HELA 6 pt (HeLa cells [2]): +
- Cell Titer-Aqueous, A549 6 pt (A549 cells [3]): +

SMILES: CC1(C)Oc2ccc(NS(=O)(=O)c3cc(Cl)c(Oc4ccc([N+](=O)[O-])cc4Cl)c(Cl)c3)cc2NC1=O [Example 213, 3,5-dichloro-4-(2-chloro-4-nitrophenoxy)-N-(2,2-dimethyl-3-oxo-3,4-dihydro-2H-1,4-benzoxazin-6-yl)benzenesulfonamide]
- APC Flag 8 pt [1]: +
- Cell Titer-Aqueous, HELA 6 pt (HeLa cells [2]): +
- Cell Titer-Aqueous, A549 6 pt (A549 cells [3]): +

SMILES: O=[N+]([O-])c1ccc(Oc2c(Cl)cc(S(=O)(=O)Nc3ncccn3)cc2Cl)c(Cl)c1 [Example 222, 3,5-dichloro-4-(2-chloro-4-nitrophenoxy)-N-pyrimidin-2-ylbenzenesulfonamide]
- APC Flag 8 pt [1]: +
- Cell Titer-Aqueous, HELA 6 pt (HeLa cells [2]): −
- Cell Titer-Aqueous, A549 6 pt (A549 cells [3]): −

SMILES: O=[N+]([O-])c1ccc(Oc2c(Cl)cc(S(=O)(=O)NC3Cc4ccccc4C3)cc2Cl)c(Cl)c1 [Example 224, 3,5-dichloro-4-(2-chloro-4-nitrophenoxy)-N-(2,3-dihydro-1H-inden-2-yl)benzene-sulfonamide]
- APC Flag (2 pt) [1]: − (2 pt)
- Cell Titer-Aqueous, HELA 6 pt (HeLa cells [2]): +
- Cell Titer-Aqueous, A549 6 pt (A549 cells [3]): +

SMILES: O=S(=O)(Nc1ccc(Oc2ccc(F)cc2)c(Br)c1)c1ccc(OC(F)(F)F)cc1 [Example 284, N-[3-bRomo-4-(4-fluorophenoxy)phenyl]-4-(trifluoromethoxy)benzenesulfonamide]
- PAD Assay, A549 6 pt (A549 cells [4]): +
- APC Flag 8 pt [1]: +
- PAD Assay, HELA 6 pt (HeLa cells [5]): +

SMILES: O=S(=O)(Nc1ccc(Oc2cc(C(F)(F)F)ccc2Cl)cc1F)c1ccc(F)cc1 [Example 286, N-{4-[2-chloro-5-(trifluoromethyl)phenoxy]-2-fluorophenyl)-4-fluorobenzenesulfonamide]
- PAD Assay, A549 6 pt (A549 cells [4]): +
- APC Flag 8 pt [1]: +
- PAD Assay, HELA 6 pt (HeLa cells [5]): +

SMILES: O=[N+]([O-])c1ccc(Oc2c(Cl)cc(S(=O)(=O)Nc3ccc(Oc4cc(C(F)(F)F)ccc4Cl)cc3F)cc2Cl)c(Cl)c1 [Example 290, 3,5-dichloro-4-(2-chloro-4-nitrophenoxy)-N-{4-[2-chloro-5-(trifluoromethyl)phenoxy]-2-fluorophenyl}benzenesulfonamide]
- PAD Assay, A549 6 pt (A549 cells [4]): +
- APC Flag 8 pt [1]: +
- PAD Assay, HELA 6 pt (HeLa cells [5]): +

SMILES: O=[N+]([O-])c1ccc(Oc2c(Cl)cc(S(=O)(=O)Nc3ccc(Oc4ccc(F)cc4)c(Br)c3)cc2Cl)c(Cl)c1 [Example 291, N-[3-bRomo-4-(4-fluorophenoxy)phenyl]-3,5-dichloro-4-(2-chloro-4-nitrophenoxy) benzenesulfonamide]
- PAD Assay, A549 6 pt (A549 cells [4]): +
- APC Flag 8 pt [1]: +
- PAD Assay, HELA 6 pt (HeLa cells [5]): +

SMILES: O=S(=O)(Nc1ccc(Oc2ncc(C(F)(F)F)cc2Cl)cc1)c1ccccc1C(F)(F)F [Example 296, N-(4-(3-chloro-5-(trifluoromethyl)pyridin-2-yloxy)phenyl)-2-(trifluoromethyl)benzenesulfonamide]
- PAD Assay, A549 6 pt (A549 cells [4]): +
- APC Flag 8 pt [1]: −
- PAD Assay, HELA 6 pt (HeLa cells [5]): −
